Read-outs that look alike come from different tables or passages of the source.
Target: acetylcholinesterase (Homo sapiens (Human), UniProt P22303)
Assay: biochemical
Assay type: biochemical
Conditions: for potency on acetylcholinesterase compared with positive control drug donepezil hydrochloride: in vitro, enzymology level
[1] = modified Ellman method, read-out: IC50 (nM), inhibition activity on acetylcholinesterase
[2] = read-out: IC50 (nM), inhibition activity on acetylcholinesterase

Sequence of acetylcholinesterase (P22303 32-614, species assumed): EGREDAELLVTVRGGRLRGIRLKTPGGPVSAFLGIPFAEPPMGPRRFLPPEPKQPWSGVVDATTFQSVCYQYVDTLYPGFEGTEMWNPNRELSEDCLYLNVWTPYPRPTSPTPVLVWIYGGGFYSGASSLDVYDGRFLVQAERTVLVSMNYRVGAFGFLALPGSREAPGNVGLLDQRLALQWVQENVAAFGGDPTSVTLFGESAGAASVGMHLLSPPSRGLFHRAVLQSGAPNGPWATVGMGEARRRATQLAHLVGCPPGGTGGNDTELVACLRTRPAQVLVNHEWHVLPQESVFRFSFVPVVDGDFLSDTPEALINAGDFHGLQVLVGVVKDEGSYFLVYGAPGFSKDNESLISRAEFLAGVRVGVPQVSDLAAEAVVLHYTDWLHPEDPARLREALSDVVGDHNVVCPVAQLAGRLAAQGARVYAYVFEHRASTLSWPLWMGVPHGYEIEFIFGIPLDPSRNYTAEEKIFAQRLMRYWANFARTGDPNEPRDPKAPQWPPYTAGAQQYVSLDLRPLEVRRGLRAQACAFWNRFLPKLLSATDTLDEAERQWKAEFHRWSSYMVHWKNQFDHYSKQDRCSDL

## CC1(C)c2cc3c(cc2C(=O)N1CCC1CCN(Cc2ccccc2)CC1)OCO3 [Compound I-13, 6-[2-(1-benzyl-4-piperidyl)ethyl]-7,7-dimethyl-[1,3]dioxolo[4,5-f]isoindol-5-one]
IC50 (nM), inhibition activity on acetylcholinesterase, modified Ellman method
  IC50: > 2000 nM
  potency on acetylcholinesterase compared with positive control drug donepezil hydrochloride: relative low activity

## CC1(C)c2cc3c(cc2C(=O)N1CCC1CCN(Cc2ccc(F)cc2)CC1)OCO3 [Compound I-16, 6-[2-[1-[(4-fluorophenyl)methyl]-4-piperidyl]ethyl]-7,7-dimethyl-[1,3]dioxolo[4,5-f]isoindol-5-one]
  potency on acetylcholinesterase compared with positive control drug donepezil hydrochloride: relative low activity
[1]
  IC50: > 2000 nM

## O=C1c2cc3c(cc2C2(CC2)N1CCC1CCN(Cc2ccc(F)cc2)CC1)OCO3 [Compound I-20, 6-[2-[1-[(4-fluorophenyl)methyl]-4-piperidyl]ethyl]spiro[[1,3]dioxolo[4,5-f]isoindole-7,1′-cyclopropane]-5-one]
  potency on acetylcholinesterase compared with positive control drug donepezil hydrochloride: even lower
[1]
  IC50: 706 nM

## O=C1c2cc3c(cc2C2(CC2)N1CCC1CCN(Cc2ccccc2Cl)CC1)OCO3 [Compound I-21, 6-[2-[1-[(2-chlorophenyl)methyl]-4-piperidyl]ethyl]spiro[[1,3]dioxolo[4,5-f]isoindole-7,1′-cyclopropane]-5-one]
  potency on acetylcholinesterase compared with positive control drug donepezil hydrochloride: even lower
[1]
  IC50: 653 nM

## O=C1c2cc3c(cc2C2(CC2)N1CCC1CCN(Cc2ccccc2C(F)(F)F)CC1)OCO3 [Compound I-22, 6-[2-[1-[[2-(trifluoromethyl)phenyl]methyl]-4-piperidyl]ethyl]spiro[[1,3]dioxolo[4,5-f]isoindole-7,1′-cyclopropane]-5-one]
  potency on acetylcholinesterase compared with positive control drug donepezil hydrochloride: relative low activity
[1]
  IC50: > 2000 nM

## N#Cc1ccccc1CN1CCC(CCN2C(=O)c3cc4c(cc3C23CC3)OCO4)CC1 [Compound I-24, 6-[2-[1-[(2-cyanophenyl)methyl]-4-piperidyl]ethyl]spiro[[1,3]dioxolo[4,5-f]isoindole-7,1′-cyclopropane]-5-one]
  potency on acetylcholinesterase compared with positive control drug donepezil hydrochloride: relative low activity
[1]
  IC50: > 2000 nM

## O=C1c2cc3c(cc2C2(CC2)N1CCC1CCN(Cc2c(F)cccc2F)CC1)OCO3 [Compound I-25, 6-[2-[1-[(2,6-difluorophenyl)methyl]-4-piperidyl]ethyl]spiro[[1,3]dioxolo[4,5-f]isoindole-7,1′-cyclopropane]-5-one]
  potency on acetylcholinesterase compared with positive control drug donepezil hydrochloride: slightly lower potency than the positive control drug
[2]
  IC50: 249 nM

## COc1ccccc1CN1CCC(CCN2C(=O)c3cc4c(cc3C23CC3)OCO4)CC1 [Compound I-26, 6-[2-[1-[(2-methoxyphenyl)methyl]-4-piperidyl]ethyl]spiro[[1, 3]dioxolo[4,5-f]isoindole-7,1′-cyclopropane]-5-one]
  potency on acetylcholinesterase compared with positive control drug donepezil hydrochloride: relative low activity
[1]
  IC50: > 2000 nM

## COc1cccc(CN2CCC(CCN3C(=O)c4cc5c(cc4C34CC4)OCO5)CC2)c1 [Compound I-27, 6-[2-[1-[(3-methoxyphenyl)methyl]-4-piperidyl]ethyl]spiro[[1, 3]dioxolo[4,5-f]isoindole-7,1′-cyclopropane]-5-one]
  potency on acetylcholinesterase compared with positive control drug donepezil hydrochloride: relative low activity
[1]
  IC50: > 2000 nM

## COc1ccc(CN2CCC(CCN3C(=O)c4cc5c(cc4C34CC4)OCO5)CC2)cc1 [Compound I-28, 6-[2-[1-[(4-methoxyphenyl)methyl]-4-piperidyl]ethyl]spiro[[1, 3]dioxolo[4,5-f]isoindole-7,1′-cyclopropane]-5-one]
  potency on acetylcholinesterase compared with positive control drug donepezil hydrochloride: relative low activity
[2]
  IC50: > 2000 nM

## O=C1c2cc3c(cc2C2(CC2)N1CCC1CCN(Cc2cccnc2)CC1)OCO3 [Compound I-30, 6-[2-[1-(3-pyridylmethyl)-4-piperidyl]ethyl]spiro[[1,3]dioxolo[4,5-f]isoindole-7,1′-cyclopropane]-5-one]
  potency on acetylcholinesterase compared with positive control drug donepezil hydrochloride: relative low activity
[1]
  IC50: > 2000 nM

## O=C1c2cc3c(cc2C2(CC2)N1CCC1CCN(Cc2ccncc2)CC1)OCO3 [Compound I-31, 6-[2-[1-(4-pyridylmethyl)-4-piperidyl]ethyl]spiro[[1,3]dioxolo[4,5-f]isoindole-7,1′-cyclopropane]-5-one]
  potency on acetylcholinesterase compared with positive control drug donepezil hydrochloride: relative low activity
[2]
  IC50: > 2000 nM

## O=C1c2cc3c(cc2C2(CC2)N1CCC1CCN(Cc2ncccn2)CC1)OCO3 [Compound I-32, 6-[2-[1-(pyrimidin-2-ylmethyl)-4-piperidyl]ethyl]spiro[[1,3]dioxolo[4,5-f]isoindole-7,1′-cyclopropane]-5-one]
  potency on acetylcholinesterase compared with positive control drug donepezil hydrochloride: relative low activity
[1]
  IC50: > 2000 nM

## O=C1c2cc3c(cc2C(=O)N1CCC1CCN(Cc2ccccn2)CC1)OCO3 [Compound I-36, 6-[2-[1-(2-pyridylmethyl)-4-piperidyl]ethyl]-[1,3]dioxolo[4,5-f]isoindole-5,7-dione]
  potency on acetylcholinesterase compared with positive control drug donepezil hydrochloride: slightly lower potency than the positive control drug
[1]
  IC50: 161 nM

## O=C1c2cc3c(cc2C(=O)N1CCC1CCN(Cc2cccnn2)CC1)OCO3 [Compound I-37, 6-[2-[1-(pyridazin-3-ylmethyl)-4-piperidyl]ethyl]-[1,3]dioxolo[4,5-f]isoindole-5,7-dione]
  potency on acetylcholinesterase compared with positive control drug donepezil hydrochloride: even lower
[1]
  IC50: 905 nM

## O=C1c2cc3c(cc2C2(CC2)N1CCC1CCN(Cc2cccnn2)CC1)OCO3 [Compound I-38, 6-[2-[1-(pyridazin-3-ylmethyl)-4-piperidyl]ethyl]spiro[[1,3]dioxolo[4,5-f]isoindole-7,1′-cyclopropane]-5-one]
  potency on acetylcholinesterase compared with positive control drug donepezil hydrochloride: relative low activity
[2]
  IC50: > 2000 nM

## O=C1c2cc3c(cc2C2(CC2)N1CCC1CCN(Cc2ccc[nH]2)CC1)OCO3 [Compound I-39, 6-[2-[1-(1H-pyrrol-2-ylmethyl)-4-piperidyl]ethyl]spiro[[1,3]dioxolo[4,5-f]isoindole-7,1′-cyclopropane]-5-one]
  potency on acetylcholinesterase compared with positive control drug donepezil hydrochloride: relative low activity
[2]
  IC50: > 2000 nM

## Cc1ccc(CN2CCC(CCN3C(=O)c4cc5c(cc4C34CC4)OCO5)CC2)[nH]1 [Compound I-40, 6-[2-[1-[(5-methyl-1H-pyrrol-2-yl)methyl]-4-piperidyl]ethyl]spiro[[1,3]dioxolo[4,5-f]isoindole-7,1′-cyclopropane]-5-one]
  potency on acetylcholinesterase compared with positive control drug donepezil hydrochloride: relative low activity
[2]
  IC50: > 2000 nM

## O=C1c2cc3c(cc2C2(CC2)N1CCC1CCN(Cc2ccn[nH]2)CC1)OCO3 [Compound I-41, 6-[2-[1-(1H-pyrazol-5-ylmethyl)-4-piperidyl]ethyl]spiro[[1,3]dioxolo[4,5-f]isoindole-7,1′-cyclopropane]-5-one]
  potency on acetylcholinesterase compared with positive control drug donepezil hydrochloride: even lower
[2]
  IC50: 990 nM
